Columns and labels:
[1] = target: Serine/threonine-protein kinase ULK1 (Homo sapiens) (UniProt O75385); conditions: Compound concentration 1000.0 nM
[2] = target: Serine/threonine-protein kinase D1 (Homo sapiens) (UniProt Q15139); conditions: Compound concentration 1000.0 nM
[3] = target: Serine/threonine-protein kinase pim-3 (Homo sapiens) (UniProt Q86V86); conditions: Compound concentration 1000.0 nM
[4] = target: Serine/threonine-protein kinase PAK 4 (Homo sapiens) (UniProt O96013); conditions: Compound concentration 1000.0 nM
[5] = target: Kappa-type opioid receptor (Homo sapiens) (UniProt P41145); conditions: Compound concentration 10.0 uM
[6] = target: Mitogen-activated protein kinase 10 (Homo sapiens) (UniProt P53779); conditions: Compound concentration 1000.0 nM
[7] = target: T1, Sodium-dependent dopamine transporter (Homo sapiens, UniProt Q01959); conditions: Compound concentration 10.0 uM
T1 sequence (Q01959 whole entry): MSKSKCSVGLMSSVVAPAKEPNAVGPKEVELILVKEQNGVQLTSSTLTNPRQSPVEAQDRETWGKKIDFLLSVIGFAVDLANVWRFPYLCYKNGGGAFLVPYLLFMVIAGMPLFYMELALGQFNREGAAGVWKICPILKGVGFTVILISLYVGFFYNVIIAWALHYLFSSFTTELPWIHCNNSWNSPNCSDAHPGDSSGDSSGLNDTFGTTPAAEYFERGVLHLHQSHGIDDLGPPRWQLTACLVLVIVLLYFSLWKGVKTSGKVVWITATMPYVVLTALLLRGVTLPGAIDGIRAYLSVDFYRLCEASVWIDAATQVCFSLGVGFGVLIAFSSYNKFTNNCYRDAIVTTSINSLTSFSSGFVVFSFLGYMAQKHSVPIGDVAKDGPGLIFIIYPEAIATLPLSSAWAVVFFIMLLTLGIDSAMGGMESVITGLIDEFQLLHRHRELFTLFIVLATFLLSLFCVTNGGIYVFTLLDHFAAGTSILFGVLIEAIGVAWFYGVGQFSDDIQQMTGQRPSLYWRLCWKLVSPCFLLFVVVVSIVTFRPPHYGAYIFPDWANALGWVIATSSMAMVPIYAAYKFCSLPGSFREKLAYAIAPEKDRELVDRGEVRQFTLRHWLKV

[8] = target: Membrane-associated tyrosine- and threonine-specific cdc2-inhibitory kinase (Homo sapiens) (UniProt Q99640); conditions: Compound concentration 1000.0 nM
[9] = system: Receptor-type tyrosine-protein kinase FLT3 (Homo sapiens), P36888 [R834Q]; conditions: Compound concentration 1000.0 nM
[10] = target: Megakaryocyte-associated tyrosine-protein kinase (Homo sapiens) (UniProt P42679); conditions: Compound concentration 1000.0 nM
[11] = target: cGMP-dependent protein kinase 2 (Homo sapiens) (UniProt Q13237); conditions: Compound concentration 1000.0 nM
Chain of cGMP-dependent protein kinase 2 (Homo sapiens) (Q13237 whole entry): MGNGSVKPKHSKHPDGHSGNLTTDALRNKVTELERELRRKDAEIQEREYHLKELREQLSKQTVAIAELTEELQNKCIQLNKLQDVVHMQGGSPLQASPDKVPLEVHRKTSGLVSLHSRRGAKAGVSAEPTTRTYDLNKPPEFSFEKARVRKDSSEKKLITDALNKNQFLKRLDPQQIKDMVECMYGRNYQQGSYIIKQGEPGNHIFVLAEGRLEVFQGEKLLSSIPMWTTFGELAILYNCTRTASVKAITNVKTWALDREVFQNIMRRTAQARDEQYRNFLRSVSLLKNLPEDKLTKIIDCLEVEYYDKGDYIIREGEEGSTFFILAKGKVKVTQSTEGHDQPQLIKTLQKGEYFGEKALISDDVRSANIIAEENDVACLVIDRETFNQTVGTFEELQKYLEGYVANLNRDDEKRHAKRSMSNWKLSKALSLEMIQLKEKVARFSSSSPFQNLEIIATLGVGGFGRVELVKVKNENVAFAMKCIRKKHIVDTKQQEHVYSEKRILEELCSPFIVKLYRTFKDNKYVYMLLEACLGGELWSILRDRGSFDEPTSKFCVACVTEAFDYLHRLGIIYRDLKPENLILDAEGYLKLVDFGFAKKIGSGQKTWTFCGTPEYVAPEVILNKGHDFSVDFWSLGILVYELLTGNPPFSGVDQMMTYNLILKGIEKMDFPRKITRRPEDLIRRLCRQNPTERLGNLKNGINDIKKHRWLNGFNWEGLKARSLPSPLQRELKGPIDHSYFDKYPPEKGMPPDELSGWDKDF

[12] = target: Death-associated protein kinase 3 (Homo sapiens) (UniProt O43293); conditions: Compound concentration 1000.0 nM
[13] = target: AP2-associated protein kinase 1 (Homo sapiens) (UniProt Q2M2I8); conditions: Compound concentration 1000.0 nM
[14] = target: Mitogen-activated protein kinase kinase kinase 5 (Homo sapiens) (UniProt Q99683); conditions: Compound concentration 1000.0 nM
Chain of Mitogen-activated protein kinase kinase kinase 5 (Homo sapiens) (Q99683 whole entry): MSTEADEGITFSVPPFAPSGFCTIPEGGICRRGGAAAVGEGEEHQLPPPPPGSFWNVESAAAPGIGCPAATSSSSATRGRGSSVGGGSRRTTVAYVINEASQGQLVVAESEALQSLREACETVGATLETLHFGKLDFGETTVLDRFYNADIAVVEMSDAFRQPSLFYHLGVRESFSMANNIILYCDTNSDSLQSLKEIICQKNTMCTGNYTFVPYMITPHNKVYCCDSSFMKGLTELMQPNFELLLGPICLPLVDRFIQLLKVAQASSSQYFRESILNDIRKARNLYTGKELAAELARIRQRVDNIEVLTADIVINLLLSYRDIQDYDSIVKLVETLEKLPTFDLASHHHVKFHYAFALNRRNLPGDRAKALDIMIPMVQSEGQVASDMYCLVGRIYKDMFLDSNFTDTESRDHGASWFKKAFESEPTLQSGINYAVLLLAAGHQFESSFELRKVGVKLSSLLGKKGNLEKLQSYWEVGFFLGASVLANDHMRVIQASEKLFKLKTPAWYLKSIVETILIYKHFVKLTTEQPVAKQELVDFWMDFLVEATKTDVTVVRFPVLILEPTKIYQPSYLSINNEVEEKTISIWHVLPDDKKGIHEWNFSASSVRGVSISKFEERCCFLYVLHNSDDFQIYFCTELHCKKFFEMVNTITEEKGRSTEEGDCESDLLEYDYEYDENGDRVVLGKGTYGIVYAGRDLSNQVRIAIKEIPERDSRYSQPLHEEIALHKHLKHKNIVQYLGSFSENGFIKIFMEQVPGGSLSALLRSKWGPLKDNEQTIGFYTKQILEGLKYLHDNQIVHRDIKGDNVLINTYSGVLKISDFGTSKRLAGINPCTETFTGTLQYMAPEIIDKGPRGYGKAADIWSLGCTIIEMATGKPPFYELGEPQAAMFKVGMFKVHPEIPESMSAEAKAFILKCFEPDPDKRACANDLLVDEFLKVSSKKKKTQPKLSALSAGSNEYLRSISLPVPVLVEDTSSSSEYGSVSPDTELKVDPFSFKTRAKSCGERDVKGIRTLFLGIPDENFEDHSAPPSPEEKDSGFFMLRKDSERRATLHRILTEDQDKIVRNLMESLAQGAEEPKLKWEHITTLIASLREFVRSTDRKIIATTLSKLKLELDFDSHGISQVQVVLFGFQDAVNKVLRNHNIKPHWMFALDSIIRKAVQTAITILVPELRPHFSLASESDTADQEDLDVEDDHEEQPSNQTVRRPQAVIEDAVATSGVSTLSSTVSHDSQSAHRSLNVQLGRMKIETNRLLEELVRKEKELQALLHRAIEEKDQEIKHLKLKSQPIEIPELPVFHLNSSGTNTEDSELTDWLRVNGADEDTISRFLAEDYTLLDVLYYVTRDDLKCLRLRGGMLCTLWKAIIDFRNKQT

[15] = system: Proto-oncogene tyrosine-protein kinase receptor Ret (Homo sapiens), P07949 [V804M]; conditions: Compound concentration 1000.0 nM
[16] = system: Phosphatidylinositol 4,5-bisphosphate 3-kinase catalytic subunit alpha isoform (Homo sapiens), P42336 [H1047Y]; conditions: Compound concentration 1000.0 nM
[17] = target: Aurora kinase A (Homo sapiens) (UniProt O14965); conditions: Compound concentration 1000.0 nM
[18] = target: Calcium/calmodulin-dependent protein kinase type IV (Homo sapiens) (UniProt Q16566); conditions: Compound concentration 1000.0 nM
[19] = target: Discoidin domain-containing receptor 2 (Homo sapiens) (UniProt Q16832); conditions: Compound concentration 1000.0 nM
[20] = target: Mitogen-activated protein kinase kinase kinase 2 (Homo sapiens) (UniProt Q9Y2U5); conditions: Compound concentration 1000.0 nM
Chain of Mitogen-activated protein kinase kinase kinase 2 (Homo sapiens) (Q9Y2U5 whole entry): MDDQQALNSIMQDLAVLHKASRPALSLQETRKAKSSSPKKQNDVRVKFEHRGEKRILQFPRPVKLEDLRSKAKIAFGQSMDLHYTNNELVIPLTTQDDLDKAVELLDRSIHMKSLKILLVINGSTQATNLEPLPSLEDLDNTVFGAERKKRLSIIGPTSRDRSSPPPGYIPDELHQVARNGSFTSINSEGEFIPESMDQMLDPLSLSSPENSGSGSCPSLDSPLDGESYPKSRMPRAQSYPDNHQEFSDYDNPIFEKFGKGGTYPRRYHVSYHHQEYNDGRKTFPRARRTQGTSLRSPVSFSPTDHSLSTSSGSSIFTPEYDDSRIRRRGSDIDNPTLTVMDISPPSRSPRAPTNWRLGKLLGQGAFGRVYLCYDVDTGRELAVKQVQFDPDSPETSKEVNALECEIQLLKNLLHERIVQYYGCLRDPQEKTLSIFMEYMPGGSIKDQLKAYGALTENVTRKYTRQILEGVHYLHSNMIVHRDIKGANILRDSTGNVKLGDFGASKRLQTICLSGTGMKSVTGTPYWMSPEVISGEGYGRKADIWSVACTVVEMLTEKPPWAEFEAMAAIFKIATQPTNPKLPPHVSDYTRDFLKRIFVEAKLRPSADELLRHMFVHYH

[21] = target: Serine/threonine-protein kinase PAK 6 (Homo sapiens) (UniProt Q9NQU5); conditions: Compound concentration 1000.0 nM
[22] = target: T1, Sodium-dependent dopamine transporter; assay: dopamine transporter (h) CEREP ligand profiling; conditions: filed as antagonist, Compound concentration 10.0 uM
[23] = system: Phosphatidylinositol 4,5-bisphosphate 3-kinase catalytic subunit alpha isoform (Homo sapiens), P42336 [E542K]; conditions: Compound concentration 1000.0 nM
[24] = target: Serine/threonine-protein kinase Chk1 (Homo sapiens) (UniProt O14757); conditions: Compound concentration 1000.0 nM
Chain of Serine/threonine-protein kinase Chk1 (Homo sapiens) (O14757 whole entry): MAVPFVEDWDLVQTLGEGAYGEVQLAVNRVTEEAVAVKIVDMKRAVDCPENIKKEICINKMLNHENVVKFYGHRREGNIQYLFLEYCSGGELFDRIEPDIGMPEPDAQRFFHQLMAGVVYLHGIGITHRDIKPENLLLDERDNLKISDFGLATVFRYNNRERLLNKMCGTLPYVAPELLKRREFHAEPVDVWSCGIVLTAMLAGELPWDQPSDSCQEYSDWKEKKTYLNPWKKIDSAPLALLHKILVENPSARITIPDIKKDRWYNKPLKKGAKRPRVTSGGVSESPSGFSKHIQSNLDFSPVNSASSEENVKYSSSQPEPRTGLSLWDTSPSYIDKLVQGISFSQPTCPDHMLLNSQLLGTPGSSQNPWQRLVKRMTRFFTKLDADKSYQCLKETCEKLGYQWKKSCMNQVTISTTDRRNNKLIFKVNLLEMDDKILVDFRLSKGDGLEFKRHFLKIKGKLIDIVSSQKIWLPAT

[25] = target: Mitogen-activated protein kinase kinase kinase 12 (Homo sapiens) (UniProt Q12852); conditions: Compound concentration 1000.0 nM
Chain of Mitogen-activated protein kinase kinase kinase 12 (Homo sapiens) (Q12852 whole entry): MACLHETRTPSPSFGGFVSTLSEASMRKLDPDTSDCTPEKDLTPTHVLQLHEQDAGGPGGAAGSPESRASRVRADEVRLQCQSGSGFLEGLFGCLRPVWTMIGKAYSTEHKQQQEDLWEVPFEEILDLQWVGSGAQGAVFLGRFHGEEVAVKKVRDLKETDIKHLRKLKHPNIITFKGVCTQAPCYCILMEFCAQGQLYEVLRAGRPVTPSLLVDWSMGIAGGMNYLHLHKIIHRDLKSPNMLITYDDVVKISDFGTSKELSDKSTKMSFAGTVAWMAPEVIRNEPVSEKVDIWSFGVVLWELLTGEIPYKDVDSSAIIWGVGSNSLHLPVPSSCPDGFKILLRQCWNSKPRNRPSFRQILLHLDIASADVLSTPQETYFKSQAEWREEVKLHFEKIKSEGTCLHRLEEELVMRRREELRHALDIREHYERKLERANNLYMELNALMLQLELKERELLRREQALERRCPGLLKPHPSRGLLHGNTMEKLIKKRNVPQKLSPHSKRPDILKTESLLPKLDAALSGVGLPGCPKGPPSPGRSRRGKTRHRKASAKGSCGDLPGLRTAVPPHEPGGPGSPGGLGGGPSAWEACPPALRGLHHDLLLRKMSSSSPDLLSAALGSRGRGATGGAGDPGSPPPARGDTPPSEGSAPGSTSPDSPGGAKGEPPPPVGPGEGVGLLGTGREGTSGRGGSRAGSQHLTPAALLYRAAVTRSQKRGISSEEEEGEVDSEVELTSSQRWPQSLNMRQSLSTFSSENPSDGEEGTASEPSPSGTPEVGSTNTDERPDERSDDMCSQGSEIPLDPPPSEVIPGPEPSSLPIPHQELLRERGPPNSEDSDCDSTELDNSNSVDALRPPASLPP

[26] = target: Serine/threonine-protein kinase Nek11 (Homo sapiens) (UniProt Q8NG66); conditions: Compound concentration 1000.0 nM
[27] = target: cAMP-dependent protein kinase catalytic subunit alpha (Homo sapiens) (UniProt P17612); conditions: Compound concentration 1000.0 nM
[28] = target: Cyclin-dependent kinase 4 (Homo sapiens) (UniProt P11802); conditions: Compound concentration 1000.0 nM
[29] = target: Serine/threonine-protein kinase PLK3 (Homo sapiens) (UniProt Q9H4B4); conditions: Compound concentration 1000.0 nM
[30] = target: RAF proto-oncogene serine/threonine-protein kinase (Homo sapiens) (UniProt P04049); conditions: Compound concentration 1000.0 nM
[31] = system: Epidermal growth factor receptor (Homo sapiens), P00533 [L858R]; conditions: Compound concentration 1000.0 nM
[32] = target: Calcium/calmodulin-dependent protein kinase type II subunit delta (Homo sapiens) (UniProt Q13557); conditions: Compound concentration 1000.0 nM
[33] = target: Mu-type opioid receptor (Homo sapiens) (UniProt P35372); assay: mu (MOP) (h) CEREP ligand profiling; conditions: filed as agonist, Compound concentration 10.0 uM
[34] = target: Casein kinase II subunit alpha' (Homo sapiens) (UniProt P19784); conditions: Compound concentration 1000.0 nM
[35] = target: Serine/threonine-protein kinase D3 (Homo sapiens) (UniProt O94806); conditions: Compound concentration 1000.0 nM
[36] = target: D(4) dopamine receptor (Homo sapiens) (UniProt P21917); conditions: Compound concentration 10.0 uM
[37] = target: Myosin light chain kinase family member 4 (Homo sapiens) (UniProt Q86YV6); conditions: Compound concentration 1000.0 nM
[38] = target: Wee1-like protein kinase 2 (Homo sapiens) (UniProt P0C1S8); conditions: Compound concentration 1000.0 nM
[39] = target: Protein kinase C theta type (Homo sapiens) (UniProt Q04759); conditions: Compound concentration 1000.0 nM
[40] = target: ALK tyrosine kinase receptor (Homo sapiens) (UniProt Q9UM73); conditions: Compound concentration 1000.0 nM
[41] = target: STE20/SPS1-related proline-alanine-rich protein kinase (Homo sapiens) (UniProt Q9UEW8); conditions: Compound concentration 1000.0 nM
[42] = target: Sigma non-opioid intracellular receptor 1 (Homo sapiens) (UniProt Q99720); conditions: Compound concentration 10.0 uM

In the case of `CNC(=O)Nc1ccc2c(c1)CC[C@@]21OC(=O)N(CC(=O)N(Cc2ccc(F)cc2)[C@@H](C)C(F)(F)F)C1=O` [A-485], the residual activity [1] is reported as 70%, the residual activity [2] is reported as 99% and the residual activity [3] is reported as 97%. It also gave a residual activity [4] of 89%, an inhibition [5] of 18.5% and a residual activity [6] of 73%. For the same molecule, the inhibition [7] was 63.9%, the residual activity [8] was 74% and the residual activity [9] was 92%. It also gave a residual activity [10] of 71%, a residual activity [11] of 86% and a residual activity [12] of 86%. The residual activity [13] was 100%, the residual activity [14] was 94% and the residual activity [15] was 98%. For the same molecule, the residual activity [16] was 91%, the residual activity [17] was 80% and the residual activity [18] was 75%. The residual activity [19] was 75%, the residual activity [20] was 100% and the residual activity [21] was 91%. For the same molecule, the inhibition [22] was 94%, the residual activity [23] was 76% and the residual activity [24] was 98%. For the same molecule, the residual activity [25] was 100%, the residual activity [26] was 91% and the residual activity [27] was 100%. The residual activity [28] was 79%, the residual activity [29] was 86% and the residual activity [30] was 100%. The residual activity [31] was 96%, the residual activity [32] was 91% and the inhibition [33] was 12%. For the same molecule, the residual activity [34] was 100%, the residual activity [35] was 100% and the inhibition [36] was 7.26%. The residual activity [37] was 70%, the residual activity [38] was 75% and the residual activity [39] was 71%. The residual activity [40] was 68%, the residual activity [41] was 100% and the inhibition [42] was 34.5%.
`CNC(=O)Nc1ccc2c(c1)[C@@]1(CC2)OC(=O)N(CC(=O)N(Cc2ccc(F)cc2)[C@@H](C)C(F)(F)F)C1=O` [A-486] showed a residual activity [1] of 64%, a residual activity [2] of 100% and a residual activity [3] of 89%. It also gave a residual activity [4] of 95%, an inhibition [5] of 8.21% and a residual activity [6] of 67%. For the same molecule, the inhibition [7] was -6.45%, the residual activity [8] was 92% and the residual activity [9] was 96%. For the same molecule, the residual activity [10] was 100%, the residual activity [11] was 85% and the residual activity [12] was 100%. For the same molecule, the residual activity [13] was 100%, the residual activity [14] was 100% and the residual activity [15] was 100%. For the same molecule, the residual activity [16] was 100%, the residual activity [17] was 79% and the residual activity [18] was 85%. The residual activity [19] was 100%, the residual activity [20] was 100% and the residual activity [21] was 100%. For the same molecule, the inhibition [22] was 27%, the residual activity [23] was 69% and the residual activity [24] was 100%. It also gave a residual activity [25] of 100%, a residual activity [26] of 84% and a residual activity [27] of 99%. It also gave a residual activity [28] of 100%, a residual activity [29] of 84% and a residual activity [30] of 100%. For the same molecule, the residual activity [31] was 100%, the residual activity [32] was 100% and the inhibition [33] was 7%. The residual activity [34] was 90%, the residual activity [35] was 100% and the inhibition [36] was 8.38%. It also gave a residual activity [37] of 100%, a residual activity [38] of 100% and a residual activity [39] of 89%. The residual activity [40] was 77%, the residual activity [41] was 100% and the inhibition [42] was 17.7%.

— ChEMBL document CHEMBL4507259 (2021)
